Assay results reported in publication PMC8789071 (2022).

Tested on: human telomeric G-quadruplex (139-nt GQ strand) in DNA origami nanobowl (DNA, G4) TTACCTTTCCCCTCTGGCAAAACTATTCCGGTAAACTTAGGGTTAGGGTTAGGGTTAGGGTTATTTTTTTTATTTCTTCAGGCTTAACCATGCATTCCGATTGCAGCTTGCATCCATTGCATCGCTTGAATTGTCCAGC
Assay: optical tweezers mechanical unfolding, force populations
Details: 100 mM KCl, 10 mM MgCl2; 20 mM Tris pH 7.8, 1 mM EDTA; free PDS 20-500 nM; bound populations outside and inside nanobowl rise

How did the binding turn out when `NCCOc1cc(C(=O)Nc2cc(OCCN)c3ccccc3n2)nc(C(=O)Nc2cc(OCCN)c3ccccc3n2)c1` was run?
The binding was “yes”.
